Source: patent US4489091A, “Antilipemic and anti-inflammatory compositions containing sulfonate derivatives” (Taiho Pharmaceutical Company Limited, priority 1980, dated 1984)
Read-outs that look alike come from different tables or passages of the source.

What was measured:
Acute toxicity = conditions: rat, in vivo
Text: Six-week-old male Wistar rats weighing 180 to 200 g are used, 5 rats in each group. Each compound of the invention is suspended in a 30% aqueous solution of polyethylene glycol 6000 and orally given to the rat at the dosage shown in Table 2. The animals are checked for poisoning, body weight and survival to determine the LD50 value.

triglycerides = assay: Antilipemic effect: percent triglycerides inhibition in plasma of rats given an olive oil-cholesterol mixture; assay type: in vivo, male Wistar rats; conditions: for inhibition in vivo at 100 mg/kg: read-out: Anti-lipemic effect, TG (percent triglycerides inhibition); for inhibition in vivo at 200 mg/kg: read-out: Anti-lipemic effect, TG (percent triglycerides inhibition), asterisked
Procedure: (§1) The above compounds of this invention are tested by the following methods for antilipemic effect and acute toxicity. In the column of antilipemic effect in the table, the asterisked values indicate the effect achieved by orally giving 200 mg/kg of the compounds concerned, and the unmarked values, the effect attained by orally giving 100 mg/kg. In the same column, "TG" stands for percent triglycerides inhibition and "CS" percent cholesterol inhibition.
(§2) Seven-week-old male Wistar rats weighing 200 to 220 g are used, 5 rats in each group.
(§3) Each compound of the invention (100 mg or 200 mg) is dissolved in 10 ml of an olive oil-cholesterol mixture (containing 15% of cholesterol). The mixture containing the compound is orally given to the rat with a probe at a dose of 10 ml/kg. Two or 8 hours thereafter, 6 ml of whole blood is withdrawn from the descending aorta of the rat under ether anesthesia with a syringe containing heparin. The blood is centrifuged at 5° C. and 3000 r.p.m. to obtain the plasma. The plasma collected after the lapse of 2 hours is used for determining the triglycerides content, and the plasma obtained 8 hours later for determining the total cholesterol content, using a triglycerides measuring kit (trade mark "Triglycerides-B Test Wako," product of Wako Junyaku Co., Ltd., Japan) and a total cholesterol measuring kit (trade mark "Cholesterol Test Wako," product of the same), respectively. The olive oil-cholesterol mixture containing no compound is similarly given to a control group, while no treatment is conducted for a normal group. The triglycerides and total cholesterol contents in the plasma are also determined for these groups in the same manner as is the case with the test groups.
(§4) The present hyperlipidemia inhibition achieved by the present compound is given by [formula] in which A is the triglycerides (cholesterol) content of the control group, B is the triglycerides (cholesterol) content of the normal group, and C is the triglycerides (cholesterol) content of the group to which the present compound is given.

cholesterol = assay: Antilipemic effect: percent total cholesterol inhibition in plasma of rats given an olive oil-cholesterol mixture; assay type: in vivo, male Wistar rats; conditions: for inhibition in vivo at 100 mg/kg: read-out: Anti-lipemic effect, CS (percent cholesterol inhibition); for Anti-lipemic effect, CS (percent cholesterol inhibition), asterisked: oral 200 mg/kg (asterisked values)
Procedure: as §1, §2, §3, §4

[1] = oral 100 mg/kg, plasma 2 hours after dosing, Wistar rat
[2] = oral 100 mg/kg, plasma 8 hours after dosing, Wistar rat
[3] = oral 200 mg/kg (asterisked values), plasma 2 hours after dosing, Wistar rat
[4] = oral, six-week-old male Wistar rats, suspended in 30% aqueous polyethylene glycol 6000, read-out: LD50
[5] = plasma 8 hours after dosing, Wistar rat

Row | Structure (SMILES) | LD50 (Acute toxicity; po) [mg/kg] | inhibition in vivo at 100 mg/kg (triglycerides; [1]) [%] | inhibition in vivo at 100 mg/kg (cholesterol; [2]) [%] | also measured
1 | CCCC(C)C(=O)COS(=O)(=O)c1ccc(C)cc1 (stereo not drawn) [Compound 122] | > 3000 | 65 | 51 | 
2 | CCCCCCCCCCC(=O)COS(=O)(=O)c1ccc(OCC)cc1 [Compound 48] | > 4000 |  | 55 | inhibition in vivo at 200 mg/kg (triglycerides; [3]): 72%
3 | CCOc1ccc(S(=O)(=O)OCC(=O)CC(C)C)cc1 [Compound 132] | > 2000 | 87 | 90 | 
4 | CCCCCCCC(=O)COS(=O)(=O)c1c(C)cc(C)cc1C [Compound 77, 2-oxononanyl-2,4,6-trimethylbenzene sulfonate] |  | 80 | 74 | LD50 (Acute toxicity; [4]): > 4000 mg/kg
5 | CCCC(=O)COS(=O)(=O)c1c(C)cc(C)c(C)c1C [Compound 95, 2-oxopentyl-2,3,4,6-tetramethylbenzene sulfonate] |  | 96 | 97 | LD50 (Acute toxicity; [4]): > 3000 mg/kg
6 | CCCCC(CCCC)C(=O)COS(=O)(=O)c1ccc(OCC)cc1 [Compound 141] | > 3000 | 68 | 66 | 
7 | CCC(=O)COS(=O)(=O)c1ccc(C)cc1 [Compound 15] | > 1500 | 40 | 41 | 
8 | CCOc1ccc(S(=O)(=O)OCC(=O)CCCCCCC(C)C)cc1 [Compound 51] |  |  |  | LD50 (Acute toxicity; [4]): > 4000 mg/kg; inhibition in vivo at 200 mg/kg (triglycerides; Rattus norvegicus, po, 2 h): 70%; inhibition in vivo at 100 mg/kg (cholesterol; Rattus norvegicus, po, 8 h): 62%
9 | CCCCC(CCC)C(=O)COS(=O)(=O)c1c(C)cc(C)cc1C (stereo not drawn) [Compound 156] | 4000 | 58 | 62 | 
10 | CCOc1ccc(S(=O)(=O)OCC(=O)C(C)CC)cc1 (stereo not drawn) [Compound 49] | > 2000 | 90 | 96 | 
11 | CCCCC(C)C(=O)COS(=O)(=O)c1ccc(C)cc1 (stereo not drawn) [Compound 127] | > 3000 | 92 | 67 | 
12 | CCCC(=O)COS(=O)(=O)c1ccccc1C [Compound 29, 2-oxopentyl-o-toluene sulfonate] |  | 73 | 30 | LD50 (Acute toxicity; [4]): > 1500 mg/kg
13 | CCCCCCCC(=O)COS(=O)(=O)c1ccc(C)cc1 [Compound 20] | > 3000 | 71 | 47 | 
14 | CCCCCCC(=O)COS(=O)(=O)c1c(C)cc(C)cc1C [Compound 76] | > 4000 | 55 | 62 | 
15 | Cc1cc(C)c(S(=O)(=O)OCC(=O)CCCC(C)C)c(C)c1 [Compound 161] | > 3000 | 51 | 56 | 
16 | CCCC(CCC)C(=O)COS(=O)(=O)c1ccc(C)cc1 [Compound 124] | > 3000 | 62 | 42 | 
17 | Cc1cc(C)c(S(=O)(=O)OCC(=O)CCC(C)C)c(C)c1 [Compound 83] | > 3000 | 68 | 71 | 
18 | CCCCC(CCCC)C(=O)COS(=O)(=O)c1c(C)cc(C)cc1C [Compound 157] | > 4000 | 67 | 66 | 
19 | CCCCC(CCC)C(=O)COS(=O)(=O)c1ccc(OCC)cc1 (stereo not drawn) [Compound 140] | > 3000 | 67 | 61 | 
20 | CC(C)CCC(=O)COS(=O)(=O)c1ccc(Cl)cc1 [Compound 70] | > 2000 | 82 | 47 | 
21 | CCCC(=O)COS(=O)(=O)c1ccccc1 [Compound 6, 2-oxopentylbenzene sulfonate] |  | 90 | 53 | LD50 (Acute toxicity; [4]): > 1000 mg/kg
22 | CCCCCC(=O)COS(=O)(=O)c1ccc(OCCCC)cc1 [Compound 55] |  |  |  | LD50 (Acute toxicity; [4]): > 3000 mg/kg; inhibition in vivo at 200 mg/kg (triglycerides; Rattus norvegicus, po, 2 h): 69%; Anti-lipemic effect, CS (percent cholesterol inhibition), asterisked (cholesterol; [5]): 40%
23 | CCCCCC(=O)COS(=O)(=O)c1ccc(OCC)cc1 [Compound 45, 2-oxoheptyl-p-ethoxybenzenesulfonate] |  | 85 | 80 | LD50 (Acute toxicity; [4]): > 3000 mg/kg

Row | Structure (SMILES) | LD50 (Acute toxicity; po) [mg/kg] | inhibition in vivo at 100 mg/kg (triglycerides; [1]) [%] | inhibition in vivo at 100 mg/kg (cholesterol; [2]) [%] | also measured
24 | CCCCCC(=O)COS(=O)(=O)c1ccc(OC)cc1 [Compound 36] | > 2000 | 78 | 79 | 
25 | CCCCCCC(=O)COS(=O)(=O)c1ccc(OCC)cc1 [Compound 46, 2-oxooctyl-p-ethoxybenzene sulfonate] |  | 65 | 62 | LD50 (Acute toxicity; [4]): > 3000 mg/kg
26 | CCCCC(CC)C(=O)COS(=O)(=O)c1ccc(C)cc1 (stereo not drawn) [Compound 26] | > 4000 | 85 | 72 | 
27 | CCCC(C)C(=O)COS(=O)(=O)c1ccc(OCC)cc1 (stereo not drawn) [Compound 133] | > 4500 | 111 | 91 | 
28 | CCCCC(=O)COS(=O)(=O)c1c(C)cc(C)cc1C [Compound 74] | > 3000 | 77 | 87 | 
29 | CCCCC(CC)C(=O)COS(=O)(=O)c1c(C)cc(C)c(C)c1C (stereo not drawn) [Compound 100] | > 4000 |  |  | inhibition in vivo at 200 mg/kg (triglycerides; [3]): 66%; Anti-lipemic effect, CS (percent cholesterol inhibition), asterisked (cholesterol; [5]): 42%
30 | CCOc1ccc(S(=O)(=O)OCC(=O)C(CC)CC)cc1 [Compound 131] | > 2000 | 110 | 97 | 
31 | CCCC(=O)COS(=O)(=O)c1ccc(C)c(C)c1C [Compound 117] | > 2000 | 70 | 71 | 
32 | CCCC(CCC)C(=O)COS(=O)(=O)c1c(C)cc(C)cc1C [Compound 152] | > 4000 | 78 | 69 | 
33 | CCCC(=O)COS(=O)(=O)c1ccc(C)cc1C [Compound 112] | > 2000 | 80 | 62 | 
34 | CCCC(C)C(=O)COS(=O)(=O)c1c(C)cc(C)cc1C (stereo not drawn) [Compound 150] | > 3000 | 84 | 79 | 
35 | CCC(C)C(=O)COS(=O)(=O)c1c(C)cc(C)c(C)c1C (stereo not drawn) [Compound 99] | > 3000 | 72 | 78 | 
36 | CCCCCC(=O)COS(=O)(=O)c1c(C)cc(C)cc1C [Compound 75] | > 3000 | 53 | 60 | 
37 | CCCC(=O)COS(=O)(=O)c1ccc(C)cc1 [Compound 16, 2-oxopentyl-p-toluenesulfonate] |  | 64 | 31 | LD50 (Acute toxicity; [4]): > 1500 mg/kg
38 | CCC(C)C(=O)COS(=O)(=O)c1c(C)cc(C)cc1C (stereo not drawn) [Compound 147] | > 3000 | 98 | 72 | 
39 | CC(C)CCC(=O)COS(=O)(=O)c1ccccc1 [Compound 12] | > 2500 | 95 | 63 | 
40 | CCC(CC)CC(=O)COS(=O)(=O)c1c(C)cc(C)cc1C [Compound 154] | > 4000 | 76 | 70 | 
41 | CCCCCC(C)C(=O)COS(=O)(=O)c1ccc(OCC)cc1 (stereo not drawn) [Compound 146] | > 4000 | 85 | 77 | 
42 | CCCCC(CCC)C(=O)COS(=O)(=O)c1ccc(C)cc1 (stereo not drawn) [Compound 128] | > 3000 | 62 | 51 | 
43 | CCC(CC)CCC(=O)COS(=O)(=O)c1c(C)cc(C)cc1C [Compound 160] | > 4000 | 42 | 40 | 
44 | COc1ccc(S(=O)(=O)OCC(=O)CCC(C)C)cc1 [Compound 40] | > 2000 | 72 | 70 | 
45 | CCCCOc1ccc(S(=O)(=O)OCC(=O)CCC)cc1 [Compound 53] |  |  |  | LD50 (Acute toxicity; [4]): > 2000 mg/kg; inhibition in vivo at 100 mg/kg (triglycerides; Rattus norvegicus, po, 2 h): 61%; inhibition in vivo at 100 mg/kg (cholesterol; Rattus norvegicus, po, 8 h): 42%
